Where no end group is shown, it is not given here.
What follows are compounds tested on surgical incisions on the backs of Swiss-Webster mice (assay: Scar formation after surgical incisions, synthetic peptide-metal complexes injected along the incision line). Settings: 10 mice each; 1 mg/ml in 0.85% saline, 0.02 ml injected at four sites on each side of incision, immediately after surgery and 24 hours later; rated 0 to 4 (heavy scarring); untreated control 3.6.
Assay type: in vivo
In the case of Ala-Gly-His-Copper(II), the “Scar Formation score (5 days)” value is reported as 0.3 ± 0.1. In the case of Ala-Gly-His-Tin(II), the “Scar Formation score (5 days)” value is reported as 0.3 ± 0.1. For “Cysteine sulfinic acid-Copper(II) [reference compound]”, the “Scar Formation score (5 days)” value was 2.9 ± 0.5. In the case of Gly-Cys-Gly-Copper(II), the “Scar Formation score (5 days)” value is reported as 1.4 ± 0.3. For Gly-Gly-Gly-Copper(II), the “Scar Formation score (5 days)” value was 0.5 ± 0.3. In the case of Gly-Gly-His-Copper(II), the “Scar Formation score (5 days)” value is reported as 0.3 ± 0.2. With Gly-His-Lys-Copper(II) the “Scar Formation score (5 days)” value was 0.2 ± 0.1. “Gly-His-Lys-His-Copper(II) (GHKH; also: copper(II) complex)” was tested, and the “Scar Formation score (5 days)” value was 0.4 ± 0.2. “Gly-His-Lys-His-Tin(II) (GHKH; also: tin(II) complex)” was tested, and the “Scar Formation score (5 days)” value was 0.4 ± 0.2. With Gly-His-Lys-Tin(II) the “Scar Formation score (5 days)” value was 0.4 ± 0.1. His-Gly-Gly-Copper(II) was tested, and the “Scar Formation score (5 days)” value was 0.5 ± 0.2. His-Gly-Gly-Tin(II) was tested, and the “Scar Formation score (5 days)” value was 0.4 ± 0.2. For Phe-Phe-Copper(II), the “Scar Formation score (5 days)” value was 0.5 ± 0.3.

Same assay, conditions: mice, injection along incision line
For N[C@@H](CS(=O)(=O)O)C(=O)O.[Cu+2] [Cysteic acid-Copper(II), reference compound], the “post-surgical scar formation compared with control wounds (in words)” value was “much less active”. N[C@@H](CCS(=O)(=O)O)C(=O)O.[Cu+2] [Homocysteic acid-Copper(II), reference compound] was tested, and the “post-surgical scar formation compared with control wounds (in words)” value was “much less active”. For “Cysteine sulfinic acid-Copper(II) [reference compound]”, the “post-surgical scar formation compared with control wounds (in words)” value was “much less active”.

Source: patent publication US8183204B2, “Methods and compositions for increasing skin remodeling” (Summit Associates International Inc., priority 2000, dated 2012)
